In PMC9499463, “Potent Chlorambucil-Platinum(IV) Prodrugs” (International Journal of Molecular Sciences, 2022):
Where “and” joins values, the source holds several entries; their conditions need not be identical. Identical values can stand only once.

How the values were obtained:
HT29 colon cells = assay: ROS detection assay (DCFH-DA fluorescence); type: cell-based, human; conditions: compounds at GI50 concentration, TBHP and NAC 20 μM
Protocol: HT29 colon cells were stained by DCFH-DA and then treated with the compounds at each specific GI50 concentration. Upon ROS production, the DCFH-DA produced […], a fluorescent product. The measured fluorescence was, therefore, proportional to the produced ROS. […] 56CLB at 24 h reported 395 RFU, 437 RFU at 48 h, and 558 RFU at 72 h (Table 6, Figure 14 and Figure S42), respectively, showing a significant production of ROS in comparison to control cells. 5CLB at 24 h produced 337 RFU, 324 RFU at 48 h, and 376 RFU at 72 h (Table 6, Figure 14 and Figure S42), respectively.
To investigate for the presence of ROS in treated cells, DCFDA/H2DCFDA-cellular ROS Assay Kit (Abcam, Cambridge, MA, USA) was used, as described. A total of 25,000 cells/mL of HT29 cells in DMEM were seeded in 96-well plates. Cells were washed with 1X kit buffer, then stained with 25 μM 2’,7’-dichlorofluorescein diacetate (DCFH-DA) and incubated for 45 min. DCFH-DA was then removed, and cells were then re-washed with 1X kit buffer, after which phenol red free media was added. Cells were then treated with GI50 drug concentration for each complex. The plates were directly scanned to measure fluorescence (relative fluorescence units (RFU)) at different time points using the Glo-Max®-Multimode microplate reader (Promega Corporation, Alexandra, VIC, Australia) at an excitation/emission of 485/535 nm. To generate the positive control (20 μM tert-butyl hydroperoxide (TBHP)), cells were washed with 1X kit buffer, and stained with DCFDA (25 μM) for 45 min. DCFDA was then removed and TBHP was added in phenol red free media. The plate was scanned to measure the RFU at different time points as mentioned above. The same method applies for the negative control treated with 20 μM N-acetylcysteine (NAC).

MIA pancreas = assay: MTT growth inhibition assay, 72 h; type: cell-based, human; conditions: MTT, 72 h
[1] = Stability in solvent systems by HPLC; type: physicochemical; conditions: room temperature
Protocol: The stability of PCLB, 5CLB, and 56CLB was evaluated by HPLC. The complexes were tested in three solvent systems, 10 mM PBS (~7.4 pH), 0.9% NaCl and d.i.H2O/DMSO (50:50). This process was followed for 1 h at room temperature for each complex in each solvent system (Table 3 and Figure S32). However, it is noteworthy that when these complexes are left in solution for more extended periods, reduction to the corresponding platinum(II) species appears inevitable (Figure S33). This is likely influenced by the nature of the coordinated CLB ligand, which is highly susceptible to rapid hydrolysis due to its functional group.
The stability of PCLB, 5CLB, and 56CLB was monitored using an Agilent Technologies 1260 Infinity instrument equipped with a Phenomenex Onyx^TM Monolithic C18-reverse phase column (100 × 4.6 mm, 5 µm pore size). The mobile phase consisted of solvents, A (0.06% TFA in d.i.H2O) and B (0.06% TFA in CH3CN/d.i.H2O (90:10)). An injection volume of 5 µL was utilized and eluted with a 0–100% linear gradient over 15 min with a flow rate of 1 mL/min, at the set wavelengths of 214 and 254 nm. Each complex was dissolved separately in three solvent systems including, 10 mM phosphate-buffered saline (PBS) at ~7.4 pH, 0.9% sodium chloride (NaCl) or standard saline solution and d.i.H2O/DMSO (50:50). Each HPLC run per solvent system was followed for 1 h at room temperature.

A2780 ovarian = assay: MTT growth inhibition assay, 72 h; type: cell-based, human
Du145 prostate = assay: MTT growth inhibition assay, 72 h; type: cell-based, human; conditions: for GI50: MTT, 72 h

Structure (SMILES)	ROS Production (HT29 colon cells; 24 h)	ROS Production (HT29 colon cells; 48 h)	ROS Production (HT29 colon cells; 72 h)	GI50 (MIA pancreas) [nM]	HPLC Peak Areas at 254 nm ([1]; 0.9% NaCl, 30 min) [%]	HPLC Peak Areas at 254 nm ([1]; 0.9% NaCl, 1 h) [%]	HPLC Peak Areas at 254 nm ([1]; PBS (~7.4 pH), 30 min) [%]	HPLC Peak Areas at 254 nm ([1]; PBS (~7.4 pH), 1 h) [%]	HPLC Peak Areas at 254 nm ([1]; d.i.H2O/DMSO (50:50), 30 min) [%]	HPLC Peak Areas at 254 nm ([1]; d.i.H2O/DMSO (50:50), 1 h) [%]	GI50 (A2780 ovarian) [nM]	GI50 (Du145 prostate)	fold increase in potency compared to CLB (Du145 prostate; Du145 prostate cell line)	fold more potent than cisplatin (Du145 prostate; Du145 prostate cell line)
O=C(CCCc1ccc(N(CCCl)CCCl)cc1)[O][Pt-2]12([OH])([NH2+][C@H]3CCCC[C@@H]3[NH2+]1)[n+]1cccc3ccc4ccc[n+]2c4c31.O=[N+]([O-])[O-].O=[N+]([O-])[O-] [PCLB, [Pt^IV(1,10-phenanthroline)(S,S-DACH)(CLB)(OH)](NO3)2]	190 RFU and 190 ± 2 RFU	244 RFU and 244 ± 7 RFU	285 RFU and 285 ± 3 RFU	190 ± 0.032	89.4	87.5	85.0	83.1	93.2	92.4	300 ± 0.048	210 ± 0.12 nM	–	–
Cc1c(C)c2cccnc2c2ncccc12.N[C@H]1CCCC[C@@H]1N.O=C([O-])CCCc1ccc(N(CCCl)CCCl)cc1.O=[N+]([O-])[O-].O=[N+]([O-])[O-].[OH-].[Pt+4] [56CLB, [Pt^IV(5,6-dimethyl-1,10-phenanthroline)(S,S-DACH)(CLB)(OH)](NO3)2]	395 RFU and 395 ± 3 RFU	437 RFU and 437 ± 2 RFU	558 RFU and 558 ± 2 RFU	11 ± 0.003	84.6	82.5	78.2	75.2	85.0	84.3	21 ± 0.0047	3 nM and 2.7 nM	10,000 fold	at least 440 fold
Cc1cc2cccnc2c2ncccc12.N[C@H]1CCCC[C@@H]1N.O=C([O-])CCCc1ccc(N(CCCl)CCCl)cc1.O=[N+]([O-])[O-].O=[N+]([O-])[O-].[OH-].[Pt+4] [5CLB, [Pt^IV(5-methyl-1,10-phenanthroline)(S,S-DACH)(CLB)(OH)](NO3)2]	337 RFU and 337 ± 8 RFU	324 RFU and 324 ± 5 RFU	376 RFU and 376 ± 1 RFU	34 ± 0.005	73.9	72.4	68.8	67.3	76.5	75.8	46 ± 0.015	14 ± 0.004 nM	–	–
